Activity calls are given as the source filed them. No rule for the calls is given here.
target: Glucose-6-phosphate 1-dehydrogenase (Leuconostoc mesenteroides) (UniProt P11411); experiment: Leuconostoc G6PDH inhibition potency, SAR follow-up, counter-screen for TbHK1 inhibitor project, biochemical, analogue series, IC50 (AID 2579); settings: Purified L. mesenteroides G6PDH enzyme assay, counterscreen
Sequence (P11411 whole entry, looked up): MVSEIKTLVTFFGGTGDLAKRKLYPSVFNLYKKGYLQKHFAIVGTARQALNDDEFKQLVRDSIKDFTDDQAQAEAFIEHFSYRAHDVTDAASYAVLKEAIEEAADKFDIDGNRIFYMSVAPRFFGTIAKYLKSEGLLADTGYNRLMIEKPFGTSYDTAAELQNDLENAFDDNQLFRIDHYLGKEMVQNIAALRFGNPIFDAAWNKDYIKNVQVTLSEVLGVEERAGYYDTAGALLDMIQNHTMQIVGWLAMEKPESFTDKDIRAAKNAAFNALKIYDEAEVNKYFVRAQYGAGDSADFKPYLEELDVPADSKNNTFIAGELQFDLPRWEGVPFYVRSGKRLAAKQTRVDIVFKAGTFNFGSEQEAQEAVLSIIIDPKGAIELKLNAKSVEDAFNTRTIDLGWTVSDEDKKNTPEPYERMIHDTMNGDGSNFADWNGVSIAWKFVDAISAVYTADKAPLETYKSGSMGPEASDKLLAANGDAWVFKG

SMILES | IC50
CC(C)(C)c1ccc(C(=O)Nc2cc(Cl)c(Br)cc2C(=O)O)cc1 | > 25 µM (inactive)
CC1(c2ccc(C(=O)Nc3cc(Cl)ccc3C(=O)O)cc2)CC1 | > 25 µM (inactive)
COc1ccc(C(=O)Nc2cc(Cl)c(Br)cc2C(=O)O)cc1 | > 25 µM (inactive)
COc1ccc(N2C(=O)c3ccc(Cl)cc3C2=O)cc1 | > 25 µM (inactive)
CC(C)(C)c1ccc(C(=O)Nc2cc(Br)ccc2C(=O)O)cc1 | > 25 µM (inactive)
O=c1c(O)c(-c2ccc(O)c(O)c2)oc2cc(O)cc(O)c12 | > 25 µM (inactive)
CC(C)(C)c1ccc(C(=O)Nc2cc(Cl)ccc2-c2nn[nH]n2)cc1 | > 25 µM (inactive)
CC(C)(C)c1ccc(C(=O)Nc2cc(Cl)ccc2O)cc1 | > 25 µM (inactive)

Second part, the compound after the results:

IC50 | SMILES
> 25 µM (inactive) | CC(C)(C)c1ccc(C(=O)Nc2cc(Cl)c(F)cc2C(=O)O)cc1
> 25 µM (inactive) | COc1ccc(C(=O)Nc2cc(Cl)c(C)cc2C(=O)O)cc1
> 25 µM (inactive) | Cc1cc(C(C#N)c2ccc(Cl)cc2)c(Cl)cc1NC(=O)c1cc(I)cc(I)c1O (centres undefined)
> 25 µM (inactive) | COc1ccc(C(=O)Nc2cc(Cl)ccc2O)cc1
> 25 µM (inactive) | CC(C)(C)c1ccc(C(=O)Nc2cc(Cl)c(Cl)cc2C(=O)O)cc1
> 25 µM (inactive) | C=C(C)c1ccc(C(=O)Nc2cc(Cl)ccc2C(=O)O)cc1

— PubChem BioAssay AID2579 (University of Pittsburgh Molecular Library Screening Center, 2010)
